Activity calls are given as the source filed them. No cut-off for these calls is given here.

One data set deals with Histone deacetylase 3 (Homo sapiens, UniProt O15379). As to the kind of experiment: Inhibition of recombinant human HDAC3 using Ac-peptide as substrate preincubated for 15 mins followed by substrate addition and measured after 60 mins.
For data set [1], the system named is Plasmodium falciparum. As to the kind of experiment: microbe, parasite or virus in culture. Particulars: 72 h.
Description: Antimalarial activity against chloroquine resistant Plasmodium falciparum clinical isolate GB4 assessed as inhibition of growth incubated for 72 hrs by SYBR green I based assay
Data set [2] in a line: Toxicity in female mouse model infected with erythrocytic stage of Plasmodium yoelli assessed as animal death at 30 mg/kg, ip pre-infected with parasite followed by twice daily compound administration from day 3 to 6. Format: organism-based. Particulars: in vivo, 96 h, time 4 day.
In the next data set the target is Histone deacetylase 2 (Homo sapiens, UniProt Q92769). As to the kind of experiment: Inhibition of recombinant human HDAC2 using Ac-peptide as substrate preincubated for 15 mins followed by substrate addition and measured after 60 mins.
In data set [3] the target is T1, Protein deacetylase HDAC6 (Homo sapiens, UniProt Q9UBN7).
T1 sequence (Q9UBN7 whole entry): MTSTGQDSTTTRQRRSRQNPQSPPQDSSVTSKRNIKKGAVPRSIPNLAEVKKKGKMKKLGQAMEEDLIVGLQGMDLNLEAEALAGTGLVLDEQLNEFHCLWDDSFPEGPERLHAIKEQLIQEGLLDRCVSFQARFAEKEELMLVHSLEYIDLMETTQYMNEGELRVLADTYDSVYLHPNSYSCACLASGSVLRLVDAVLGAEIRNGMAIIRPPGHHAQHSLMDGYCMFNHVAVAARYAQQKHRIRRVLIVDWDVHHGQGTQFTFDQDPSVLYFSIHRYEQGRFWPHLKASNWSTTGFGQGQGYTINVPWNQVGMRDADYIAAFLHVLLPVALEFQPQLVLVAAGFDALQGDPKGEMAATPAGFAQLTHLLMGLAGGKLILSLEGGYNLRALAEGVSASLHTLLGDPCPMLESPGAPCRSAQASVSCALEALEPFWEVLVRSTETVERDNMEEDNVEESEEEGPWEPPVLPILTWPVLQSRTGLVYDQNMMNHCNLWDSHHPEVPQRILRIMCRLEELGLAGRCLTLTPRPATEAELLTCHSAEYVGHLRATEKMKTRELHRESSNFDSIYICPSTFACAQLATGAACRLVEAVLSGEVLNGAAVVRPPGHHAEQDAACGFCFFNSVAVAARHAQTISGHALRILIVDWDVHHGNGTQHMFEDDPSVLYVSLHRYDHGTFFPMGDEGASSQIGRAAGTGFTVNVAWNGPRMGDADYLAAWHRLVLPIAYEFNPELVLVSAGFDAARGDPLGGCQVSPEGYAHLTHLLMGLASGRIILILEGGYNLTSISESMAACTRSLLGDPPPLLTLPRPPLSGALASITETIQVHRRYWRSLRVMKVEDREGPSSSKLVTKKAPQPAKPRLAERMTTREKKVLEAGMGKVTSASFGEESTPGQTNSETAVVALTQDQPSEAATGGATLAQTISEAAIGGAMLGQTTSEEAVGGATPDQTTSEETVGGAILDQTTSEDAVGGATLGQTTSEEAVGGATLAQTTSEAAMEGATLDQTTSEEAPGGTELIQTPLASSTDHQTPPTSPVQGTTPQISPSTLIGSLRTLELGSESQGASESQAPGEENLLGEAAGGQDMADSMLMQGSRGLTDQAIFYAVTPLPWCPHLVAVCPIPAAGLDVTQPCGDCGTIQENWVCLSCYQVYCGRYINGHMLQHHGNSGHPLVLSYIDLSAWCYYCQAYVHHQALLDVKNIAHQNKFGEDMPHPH
Nature of the data set: Inhibition of recombinant human HDAC6 using Ac-peptide as substrate preincubated for 15 mins followed by substrate addition and measured after 60 mins.

A further data set deals with Histone deacetylase 1 (Homo sapiens, UniProt Q13547). Nature of the data set: Inhibition of recombinant human HDAC1 using Ac-peptide as substrate preincubated for 15 mins followed by substrate addition and measured after 60 mins.
A short description of data set [4]: Cytotoxicity against human HepG2 cells assessed as inhibition of cell growth incubated for 72 hrs by CCK8 assay. Format: toxicity, cell-based. On the technique in general: Tetrazolium assays rely on reduction of a dye to a coloured formazan, in cell work by metabolically active cells.
Data set [5] is described as follows: Metabolic stability in mouse liver microsomes assessed as clearance measured upto 45 mins in presence of NADPH by LC-MS/MS analysis. It is filed as ADME, Microsome. Particulars: read-out: CLH.
Another data set concerns the target T2, Histone deacetylase 8 (Homo sapiens, UniProt Q9BY41).
T2 sequence (Q9BY41 whole entry): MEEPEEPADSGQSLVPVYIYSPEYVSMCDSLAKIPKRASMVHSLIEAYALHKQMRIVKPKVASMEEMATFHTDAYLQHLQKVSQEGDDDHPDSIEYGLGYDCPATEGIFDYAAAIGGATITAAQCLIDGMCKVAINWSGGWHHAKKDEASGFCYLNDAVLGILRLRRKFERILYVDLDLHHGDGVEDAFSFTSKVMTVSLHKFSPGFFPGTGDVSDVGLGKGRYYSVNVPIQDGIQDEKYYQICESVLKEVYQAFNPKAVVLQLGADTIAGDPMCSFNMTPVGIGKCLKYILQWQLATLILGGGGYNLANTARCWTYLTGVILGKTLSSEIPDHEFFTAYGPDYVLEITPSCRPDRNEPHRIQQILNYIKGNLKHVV
As to the kind of experiment: Inhibition of recombinant human HDAC8 using Ac-peptide as substrate preincubated for 15 mins followed by substrate addition for 240 mins and measured after 120 mins of trypsin addition.

For data set [6], the system named is Plasmodium falciparum. As to the kind of experiment: microbe, parasite or virus in culture. Particulars: Dd2, 72 h.
Description: Antimalarial activity against erythrocytic stage of chloroquine-resistant Plasmodium falciparum Dd2 assessed as inhibition of growth incubated for 72 hrs by SYBR green I based assay
Data set [7] can be described thus: Cytotoxicity against HEK293T cells assessed as inhibition of cell growth incubated for 72 hrs by CCK8 assay. It is filed as toxicity, cell-based, HEK-293T. Particulars: human.
The subject of data set [8] is Plasmodium yoelii. Nature of the data set: Antimalarial activity against erythrocytic stage of Plasmodium yoelli infected in female mouse model assessed as reduction in parasitemia at 30 mg/kg, ip pre-infected with parasite followed by twice daily compound administration from day 3 to 6 by microscopic analysis. It is filed as functional, organism-based. Particulars: time 4.0 day.

Data set [9] concerns Plasmodium falciparum. Nature of the data set: Inhibition of asynchronous ring stage Plasmodium falciparum 3D7 HDAC assessed as increase in histone H3 acetylation level at 20 times of IC50 concentration incubated for 2 hrs by Western blot analysis. In general terms: Immunoblotting shows a protein as a band on a membrane.
Data set [10] is described as follows: Selectivity index, ratio of IC50 for HEK293T cells to IC50 for erythrocytic stage of Plasmodium falciparum 3D7. Particulars: human, read-out: Ratio IC50. It is filed as toxicity, cell-based.
Data set [11] deals with Plasmodium falciparum. Nature of the data set: microbe, parasite or virus in culture. Particulars: 3D7, 72 h.
Description: Antimalarial activity against erythrocytic stage of Plasmodium falciparum 3D7 assessed as inhibition of growth incubated for 72 hrs by SYBR green I based assay
Data set [12] deals with Plasmodium falciparum. Nature of the data set: Antimalarial activity against sulfadoxine-pyrimethamine and mefloquine resistant Plasmodium falciparum clinical isolate CP286 assessed as inhibition of growth incubated for 72 hrs by SYBR green I based assay. Format: functional, organism-based.
For data set [13], the system named is Plasmodium falciparum. Nature of the data set: microbe, parasite or virus in culture. Particulars: 72 h. The source holds these as a separate data set.
Description: Antimalarial activity against quinine and chloroquine resistant Plasmodium falciparum clinical isolate C2A assessed as inhibition of growth incubated for 72 hrs by SYBR green I based assay
The target in data set [14] is T3, NAD-dependent protein deacetylase sirtuin-2 (Homo sapiens, UniProt Q8IXJ6).
T3 sequence (Q8IXJ6 whole entry): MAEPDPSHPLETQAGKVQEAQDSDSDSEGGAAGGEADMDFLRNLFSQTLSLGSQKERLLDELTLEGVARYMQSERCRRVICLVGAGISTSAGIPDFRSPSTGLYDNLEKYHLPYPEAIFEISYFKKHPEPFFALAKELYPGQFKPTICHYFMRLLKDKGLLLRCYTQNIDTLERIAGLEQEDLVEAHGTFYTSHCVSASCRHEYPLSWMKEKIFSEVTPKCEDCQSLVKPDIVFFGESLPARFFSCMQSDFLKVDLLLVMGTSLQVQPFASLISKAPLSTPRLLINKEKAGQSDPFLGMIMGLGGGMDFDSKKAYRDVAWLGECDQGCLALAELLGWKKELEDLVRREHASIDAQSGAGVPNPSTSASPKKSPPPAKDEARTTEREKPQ
As to the kind of experiment: Inhibition of recombinant human SIRT2 using Ac-peptide as substrate preincubated for 15 mins followed by substrate addition for 240 mins and measured after 120 mins of trypsin addition.

Data set [15] in a line: Metabolic stability in mouse liver microsomes assessed as half-life measured upto 45 mins in presence of NADPH by LC-MS/MS analysis. Format: ADME, Microsome.
For data set [16], the system named is Plasmodium yoelii. As to the kind of experiment: Antimalarial activity against erythrocytic stage of Plasmodium yoelli infected in female mouse model assessed as reduction in parasitemia at 60 mg/kg, ip pre-infected with parasite followed by once daily compound administration from day 3 to 6 by microscopic analysis. Format: functional, organism-based. Particulars: time 4.0 day.

Data set [17] is described as follows: Toxicity in female mouse model at 150 mg/kg, ip administered as single dose. Format: organism-based. Particulars: in vivo.
Data set [18] is described as follows: Tmax in female Balb/c mouse at 5 mg/kg, ip measured after 24 hrs by LC-MS/MS analysis. Format: ADME, organism-based. Particulars: in vivo.
The nature of data set [19]: Toxicity in female mouse model infected with erythrocytic stage of Plasmodium yoelli assessed as animal death at 30 mg/kg, ip pre-infected with parasite followed by […] compound administration from day 3 to 6. Format: organism-based. Particulars: in vivo, 96 h, time 4 day.
Data set [20] in a line: Resistance index, ratio of IC50 for quinine and chloroquine resistant Plasmodium falciparum clinical isolate C2A to IC50 for erythrocytic stage of Plasmodium falciparum 3D7. It is filed as functional.
A short description of data set [21]: Resistance index, ratio of IC50 for chloroquine resistant Plasmodium falciparum clinical isolate GB4 to IC50 for erythrocytic stage of Plasmodium falciparum 3D7. Format: functional.
Data set [22] is described as follows: Resistance index, ratio of IC50 for sulfadoxine-pyrimethamine and mefloquine resistant Plasmodium falciparum clinical isolate CP286 to IC50 for erythrocytic stage of Plasmodium falciparum 3D7. It is filed as functional.

Sequence of Histone deacetylase 3 (O15379 whole entry): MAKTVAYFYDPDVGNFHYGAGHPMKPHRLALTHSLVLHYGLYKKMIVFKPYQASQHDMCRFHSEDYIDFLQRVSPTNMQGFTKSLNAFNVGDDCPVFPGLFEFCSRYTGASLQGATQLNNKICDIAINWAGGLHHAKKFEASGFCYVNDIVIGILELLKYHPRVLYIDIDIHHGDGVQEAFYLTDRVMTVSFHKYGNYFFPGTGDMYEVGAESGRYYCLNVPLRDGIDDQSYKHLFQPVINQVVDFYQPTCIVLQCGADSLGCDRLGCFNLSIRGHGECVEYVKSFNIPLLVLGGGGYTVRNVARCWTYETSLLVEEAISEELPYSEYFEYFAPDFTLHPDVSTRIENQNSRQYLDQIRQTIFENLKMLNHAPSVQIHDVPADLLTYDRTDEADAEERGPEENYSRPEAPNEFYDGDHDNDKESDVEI
Sequence of Histone deacetylase 1 (Q13547 whole entry): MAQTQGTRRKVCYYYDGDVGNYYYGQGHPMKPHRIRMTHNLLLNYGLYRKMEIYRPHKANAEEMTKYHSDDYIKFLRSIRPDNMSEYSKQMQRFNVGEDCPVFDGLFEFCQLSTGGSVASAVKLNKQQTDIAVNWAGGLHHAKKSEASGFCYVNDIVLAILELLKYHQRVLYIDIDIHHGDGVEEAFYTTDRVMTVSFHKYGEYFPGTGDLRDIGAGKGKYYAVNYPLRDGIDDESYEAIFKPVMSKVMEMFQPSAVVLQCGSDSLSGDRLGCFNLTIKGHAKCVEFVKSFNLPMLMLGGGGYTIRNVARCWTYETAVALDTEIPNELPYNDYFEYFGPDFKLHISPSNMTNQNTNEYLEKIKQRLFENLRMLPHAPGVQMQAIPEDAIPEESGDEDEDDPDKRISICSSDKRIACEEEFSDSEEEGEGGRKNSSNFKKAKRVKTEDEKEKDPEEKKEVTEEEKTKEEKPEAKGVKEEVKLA
Sequence of Histone deacetylase 2 (Q92769 whole entry): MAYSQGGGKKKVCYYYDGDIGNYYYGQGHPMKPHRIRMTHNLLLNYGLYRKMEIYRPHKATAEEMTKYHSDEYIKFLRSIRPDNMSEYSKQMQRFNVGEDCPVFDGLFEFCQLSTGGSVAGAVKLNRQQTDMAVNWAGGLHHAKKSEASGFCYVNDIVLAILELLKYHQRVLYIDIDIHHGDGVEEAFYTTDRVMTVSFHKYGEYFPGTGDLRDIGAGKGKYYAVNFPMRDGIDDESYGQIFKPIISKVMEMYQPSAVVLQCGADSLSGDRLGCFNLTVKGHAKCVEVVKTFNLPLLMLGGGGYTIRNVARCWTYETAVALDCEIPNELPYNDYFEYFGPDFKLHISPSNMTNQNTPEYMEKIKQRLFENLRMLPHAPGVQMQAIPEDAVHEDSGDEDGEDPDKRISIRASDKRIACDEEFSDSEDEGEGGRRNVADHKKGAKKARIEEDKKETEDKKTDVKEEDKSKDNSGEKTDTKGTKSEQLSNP

As to `COc1ccc2c(CN[C@H]3CC[C@@H](Nc4ncc(C(=O)NO)cn4)CC3)cn(C)c2c1.Cl`, the IC50 – broadly, the concentration that inhibits the measured activity by half – on Histone deacetylase 3 was determined as 21 nM; in the data set on Plasmodium falciparum [1] it was 27.2 nM; at Histone deacetylase 2, 14 nM; in [3], 90 nM; at Histone deacetylase 1, 9.1 nM; at Histone deacetylase 8 it was 30 nM. In addition, the IC50 in the data set on Plasmodium falciparum [6] is 12.8 nM; with Plasmodium falciparum [11], 2.7 nM; in the data set on Plasmodium falciparum [12], 38.7 nM; in the data set with Plasmodium falciparum [13], 22.7 nM; in data set [14], greater than 10 µM. Also, the values for the Activity result (in data set [2]; in the data set on Plasmodium yoelii [8]) were “Toxic” and “Active; Only Slight Recurrence Of Parasitemia Was Observed Upon Cessation Of Treatment”, respectively. Further, the IC50 at 72 h is 12.8 µM in data set [4] and greater than 10 µM in [7]. Moreover, the CLint scaled in data set [5] worked out at 114 mL/min/kg. The inhibition result in the data set with Plasmodium falciparum [9] was “Active”. In addition, in data set [10], the selectivity ratio was greater than 867. In data set [15], the half-life (commonly the time in which the quantity being followed falls by half) stood at 48 min.

`Cn1cc(CNCC2CCN(c3ncc(C(=O)NO)cn3)CC2)c2ccccc21` [QUISINOSTAT]: the concentration for half-maximal inhibition (IC50) in the data set on Plasmodium falciparum [1] was 1.7 nM; in the data set on Plasmodium falciparum [11], 5.2 nM; in data set [14] it was greater than 10 µM. The Activity entry is “Active; Significant Recurrence Of Parasitemia Observed” in the data set on Plasmodium yoelii [16], “Not active; Mild Recurrence Of Parasitemia Post-Treatment Cessation Observed” in the data set with Plasmodium yoelii [8], “Toxic” in data set [17] and “Toxic” in data set [19]. Also, in the data set with Plasmodium falciparum [9], the inhibition entry is “Active”. The Tmax – broadly, the time at which the peak concentration occurs – in data set [18] was found to be 4.98 min. For the same molecule, the half-life in data set [15] came out at 13.3 min.

For `C[C@H]1[C@@H](O)O[C@@H]2O[C@@]3(C)CC[C@H]4[C@H](C)CC[C@@H]1[C@@]24OO3` [ARTENIMOL], the IC50 with Plasmodium falciparum [1] was determined as 3.2 nM; in the data set with Plasmodium falciparum [6], 2.68 nM; in the data set on Plasmodium falciparum [11], 2.7 nM; in the data set on Plasmodium falciparum [12], 5.6 nM; in the data set on Plasmodium falciparum [13] it was 3.7 nM. The Ratio IC50 turned out to be 1.4 in data set [20], 1.2 in data set [21] and 2.1 in data set [22].

The record behind these values is ChEMBL document CHEMBL6096636 (Bioorg Med Chem, 2024).
